Laboratory results reported in patent US6348485B1, “Method for treating or preventing sleep disorders” (Takeda Chemical Industries, Ltd., priority 1998, dated 2002).

Columns and labels:
[1] = tested on: crab-eating macaques (Macaca fascicularis); assay: Sleep latencies at nighttime in monkeys (EEG/EMG/EOG sleep stage classification); type: in vivo; settings: vs control
Method: (§1) Six female crab-eating macaques (Macaca fascicularis), weighing 2.8-4.2 kg, were housed individually in a room maintained at 24±1° C. with a 12-h light/dark cycle (light on 6:00). Under sodium pentobarbital anesthesia, stainless steel screw and bipolar electrodes for electroencephalogram (EEG), electromyogram (EMG) and electro-oculogram (EOG) were implanted. After recovery from surgery, the monkeys were well habituated to the recording chamber (60×60×80 cm) located in a sound-proof and electrically shielded room. Compound A (0.003 mg/kg) and/or triazolam (0.03 mg/kg) were given orally 17:50-17:55. Compound A and triazolam were suspended in 0.5% methylcellulose solution. The control monkey was given 0.5% MC. The behaviors of subjects were observed using a video camera with infrared light sensitivity. EEG, EMG and EOG were recorded on a MO disk with an electroencephalograph (EE5518, NEC Medical Systems, Tokyo, Japan). All recordings were carried out from 18:00 until 6:00. The EEG power spectral analysis was also performed continuously by means of a fast Fourier transform (FFT) system equipped with a personal computer. […] Latencies of each sleep stage (the time until the first appearance of each sleep stage) were determined from 18:00. The occurrence of each sleep stage at nighttime and other sleep parameters were also determined.

[2] = tested on: crab-eating macaques (Macaca fascicularis); assay: Observation of general behavior of monkeys (video camera); type: in vivo; settings: triazolam 0.03 mg/kg p.o. alone
Method: as §1

Row | Structure (SMILES) | effect on the latency of any sleep stages ([1]; compound A 0.003 mg/kg p.o. alone) | ataxia and sedation [2] | effect on general behavior [2] | effect on the sleep latencies ([1]; triazolam 0.03 mg/kg p.o. alone)
1 | CCC(=O)NCC[C@@H]1CCc2ccc3c(c21)CCO3 [compound A, (S)-N-[2-(1,6,7,8-tetrahydro-2H-indeno[5,4-b]furan-8-yl)ethyl]propionamide] | no significant effects |  |  | 
2 | Cc1nnc2n1-c1ccc(Cl)cc1C(c1ccccc1Cl)=NC2 [triazolam, 8-chloro-6-(2-chlorophenyl)-1-methyl-4H-[1,2,4]triazolo[4,3-a][1,4]benzodiazepine] |  | did not cause | did not affect | no significant effects
